Assay results published in the supplement of paper PMC10307832.

Key:
Assay in all cases: relative viability (nuclei count vs DMSO), 5 days (fraction); higher = more cells survive
[1] = compound: CS(=O)(=O)c1ccc(C(=O)Nc2ccc(Cl)c(-c3ccccn3)c2)c(Cl)c1 [Vismodegib] + Cc1nc(NC(=O)N2CCC[C@H]2C(N)=O)sc1-c1ccnc(C(C)(C)C(F)(F)F)c1 [Alpelisib] (partner 2 µM)
Method in brief: (§1)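 Lung cancer cell lines in 1536-well plates got either a single drug or a fixed anchor-drug dose together with five library-drug doses (not always all listed) in √10 steps, by pin tool, on the day after seeding. Nuclei were counted after 5 days, and relative viability is the treated-to-vehicle ratio of nuclei counts. Values are medians of duplicate plates.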

[2] = compound: N#CC[C@H](C1CCCC1)n1cc(-c2ncnc3[nH]ccc23)cn1 [Ruxolitinib] + CCNC(=O)c1noc(-c2cc(C(C)C)c(O)cc2O)c1-c1ccc(CN2CCOCC2)cc1 [Luminespib] (partner 0.01 µM)
Method in brief: as §1

[3] = compound: CS(=O)(=O)c1ccc(-c2cnc(N)c(C(=O)Nc3ccccc3)n2)cc1 [VE-821] + CC(=O)c1c(C)c2cnc(Nc3ccc(N4CCNCC4)cn3)nc2n(C2CCCC2)c1=O [Palbociclib] (partner 0.5 µM)
Method in brief: as §1

[4] = compound: CS(=O)(=O)c1ccc(C(=O)Nc2ccc(Cl)c(-c3ccccn3)c2)c(Cl)c1 [Vismodegib] + CC(=O)Nc1cccc(-n2c(=O)n(C3CC3)c(=O)c3c(Nc4ccc(I)cc4F)n(C)c(=O)c(C)c32)c1 [Trametinib] (partner 0.02 µM)
Method in brief: as §1

Row | Cell Line | relative viability ([1]; first compound 0.08 µM) | relative viability ([1]; first compound 0.253 µM) | relative viability ([1]; first compound 0.8 µM) | relative viability ([1]; first compound 2.53 µM) | relative viability ([1]; first compound 8 µM) | relative viability ([2]; first compound 0.08 µM) | relative viability ([2]; first compound 0.253 µM) | relative viability ([2]; first compound 0.8 µM) | relative viability ([2]; first compound 2.53 µM) | relative viability ([2]; first compound 8 µM) | relative viability ([3]; first compound 0.08 µM) | relative viability ([3]; first compound 0.253 µM) | relative viability ([3]; first compound 0.8 µM) | relative viability ([3]; first compound 2.53 µM) | relative viability ([3]; first compound 8 µM) | relative viability ([4]; first compound 0.08 µM) | relative viability ([4]; first compound 0.253 µM) | relative viability ([4]; first compound 0.8 µM) | relative viability ([4]; first compound 2.53 µM) | relative viability ([4]; first compound 8 µM)
1 | NCI-H1395 | 0.997 | 0.966 | 0.961 | 0.944 | 1.14 | 0.89 | 0.661 | 0.863 | 0.623 | 0.592 | 0.725 | 0.658 | 0.549 | 0.586 | 0.516 | 0.851 | 0.958 | 0.878 | 0.921 | 1.1
2 | EMC-BAC-2 | 0.716 | 0.763 | 0.819 | 0.732 | 0.754 | 1.09 | 1.16 | 1.15 | 1.04 | 0.947 | 0.531 | 0.491 | 0.528 | 0.545 | 0.524 | 0.871 | 0.847 | 0.806 | 0.859 | 0.953
3 | NCI-H1666 | 0.913 | 0.879 | 0.813 | 1.01 | 1.13 | 1 | 1.1 | 1.05 | 1.01 | 0.972 | 0.635 | 0.685 | 0.644 | 0.713 | 0.621 | 0.816 | 0.852 | 0.836 | 0.899 | 0.904
4 | H3255 | 0.75 | 0.676 | 0.764 | 0.752 | 0.543 | 0.85 | 0.881 | 1.07 | 0.841 | 0.865 | 0.288 | 0.332 | 0.332 | 0.326 | 0.319 | 0.648 | 0.602 | 0.573 | 0.614 | 0.668
5 | NCI-H1793 |  | 0.642 | 0.77 | 0.809 | 0.671 | 0.221 | 0.204 | 0.169 | 0.156 | 0.136 | 0.361 | 0.32 |  | 0.447 | 0.333 |  | 0.366 | 0.479 | 0.409 | 0.413
6 | NCI-H1755 | 0.921 | 0.912 | 0.957 | 0.868 | 0.942 | 0.452 | 0.45 | 0.699 | 0.351 | 0.362 | 0.429 | 0.437 | 0.423 | 0.363 | 0.424 | 0.82 | 0.765 | 0.78 | 0.709 | 0.834
7 | LOU-NH91 | 0.693 | 0.782 | 0.699 | 0.695 | 0.755 |  | 0.361 | 0.35 | 0.316 | 0.382 | 0.543 | 0.512 | 0.545 | 0.548 | 0.565 | 0.762 | 0.804 | 0.8 | 0.786 | 0.772
8 | NCI-H1975 | 0.621 | 0.649 | 0.617 | 0.611 | 0.721 | 0.172 | 0.191 | 0.241 | 0.232 | 0.153 | 0.601 | 0.473 | 0.349 | 0.607 | 0.415 | 0.32 | 0.24 | 0.374 | 0.357 | 0.331
